Values quoted from earlier work, collected in patent US4340609A, “Amidinourea derivative veterinary compositions for suppression of parasitemia” (William H. Rorer, Inc., priority 1980, dated 1982).

Details: triazine form/metabolite, cited from earlier work; for usefulness in therapy: malaria

SMILES	excretion from the body	usefulness in therapy
[H]/N=C(\N/C(=N/[H])Nc1ccc(Cl)cc1)NC(C)C [chloroguanide]	rapidly excreted from the body when in its triazine form	little or no usefulness
CC1(C)N=C(N)N=C(N)N1c1ccc(Cl)cc1 [triazine metabolite of chloroquanide]	rapid excretion from the body	little or no usefulness in the therapy of humans and monkeys
